*: point of attachment. 5FAM = O=C1OC2(c3ccc(O)cc3Oc3cc(O)ccc32)c2ccc(C(=O)*)cc21; TQ2 = quencher
Experiments:
[1] = target: T1, MMP14 in the HT1080 culture supernatants and the culture medium samples (Homo sapiens, UniProt P50281); assay: Digital detection of MMP14 active component in HT1080 culture supernatants, culture media and recovered liquids in wells; assay type: biochemical; conditions: for MMP14 active component concentration: HT1080 culture Present
T1 construct: host or cells: HT1080 culture supernatant
Protocol: In addition, for detection of MMP14 activity, 1 mM Custom #1 was diluted with the buffer (4) to prepare a MMP14 detection solution containing 5 μM Custom #1 and 2 μM Alexa Fluor 647.

[2] = test system: MMP14 in the HT1080 culture supernatants and the culture medium samples; assay: Evaluation of MMP14 activity of HT1080 culture supernatants, culture media and recovered liquids (exoEasy, qEV) with 96-well plate; assay type: biochemical, Human; conditions: for Fluorescence change: after 2 hours; for change in fluorescence intensity after 2 hours: reporter 2.5 μM, 30° C.
Protocol: The MMP14 activity was evaluated with a 96-well plate (manufactured by Thermo Fisher Scientific Inc., model number: 137101). […] For measurement wavelengths, an excitation wavelength of 485±20 nm and a fluorescence wavelength of 528±20 nm were used.
Human fibrosarcoma HT1080 cells (KAC Co., Ltd.) were cultured in three kinds of cell culture media described later. In addition, 100 mm cell culture Dish (Nunclon Delta Surface) (manufactured by Thermo Fisher Scientific Inc.) was used as a cell culture container.
Each of the culture supernatants was recovered from each of the dishes in a centrifuge tube, and centrifuged at 2,000×g for 10 minutes at 4° C. Each of the supernatants after the centrifugation was recovered in a fresh container with a small amount of the culture medium remaining so as not to incorporate the precipitated cells. Each of the culture supernatants was filtered through a syringe with a 0.22 μm filter (manufactured by Merck KGaA) so that contaminants such as cell fragments were removed. After that, the filtrate was recovered in a fresh container, and stored at 4° C.
From each of the HT1080 culture supernatants described in the section “(Recovery of Culture Supernatant)”, 100 μL of each of the supernatants after centrifugation and 100 μL of each of the supernatants after filtration through a 0.22 μm filter were each aliquoted, and the buffer (4) was added to the aliquots to provide 1 mL of solutions. The concentration of each of the solutions is 1/10 of the concentration of each of the HT1080 culture supernatants.
In addition, for detection of MMP14 activity, 1 mM Custom #1 was diluted with the buffer (4) to prepare a 5 μM MMP14 detection solution.
50 μL of the MMP14 detection solution was added to 50 μL of each of the samples, a reaction was performed at 30° C., and MMP14 activity was evaluated.
Extracellular vesicles were recovered from 3 mL of each of the recovered culture supernatants with exoEasy Maxi Kit. In this case, the recovery was performed according to the protocol included in the kit. From 3 mL of each of the culture supernatants, 450 μL of each of recovered liquids was obtained. Each of the recovered liquids has a concentration 6.67 times the original concentration of each of the culture supernatants. Each of the recovered liquids was diluted 66.7-fold to prepare 100 μL of a sample at 1/10 of the original concentration of each of the culture supernatants.
Extracellular vesicles were recovered from 3 mL of each of the recovered culture supernatants with qEV. In this case, the recovery was performed according to the protocol included in the kit. From 3 mL of each of the culture supernatants, 700 μL of each of fraction recovered liquids in series was obtained. Each of the recovered liquids was used as a sample as it was.

[5-FAM]GRIGFLRTAK(TQ2)[OH] (5FAM-GRIGFLRTAK(TQ2)-OH) [Custom #1]
MMP14 active component concentration ([1]; Experiment condition (I): FBS, only centrifugation, Reaction 4 hr): 3.611e+11 mL⁻¹ | MMP14 active component concentration ([1]; Experiment condition (I): FBS, only centrifugation, Reaction 24 hr): 3.753e+11 mL⁻¹ | MMP14 active component concentration ([1]; Experiment condition (II): FBS, centrifugation + filtration, Reaction 4 hr): 3.042e+11 mL⁻¹ | MMP14 active component concentration ([1]; Experiment condition (II): FBS, centrifugation + filtration, Reaction 24 hr): 3.0889e+11 mL⁻¹ | MMP14 active component concentration ([1]; Experiment condition (IV): Exo-FBS, only centrifugation, Reaction 4 hr): 2.013e+11 mL⁻¹ | MMP14 active component concentration ([1]; Experiment condition (IV): Exo-FBS, only centrifugation, Reaction 24 hr): 1.981e+11 mL⁻¹ | MMP14 active component concentration ([1]; Experiment condition (V): Exo-FBS, centrifugation + filtration, Reaction 4 hr): 2.275e+11 mL⁻¹ | MMP14 active component concentration ([1]; Experiment condition (V): Exo-FBS, centrifugation + filtration, Reaction 24 hr): 2.309e+11 mL⁻¹ | MMP14 active component concentration ([1]; Experiment condition (VII): MEM, only centrifugation, Reaction 4 hr): 1.341e+09 mL⁻¹ | MMP14 active component concentration ([1]; Experiment condition (VII): MEM, only centrifugation, Reaction 24 hr): 4.02e+09 mL⁻¹ | MMP14 active component concentration ([1]; Experiment condition (VIII): MEM, centrifugation + filtration, Reaction 4 hr): 2.057e+09 mL⁻¹ | MMP14 active component concentration ([1]; Experiment condition (VIII): MEM, centrifugation + filtration, Reaction 24 hr): 4.426e+09 mL⁻¹ | MMP14 extracellular vesicle concentration ([1]; HT1080 culture supernatant recovered with exoEasy, Exo-FBS, Reaction 4 hr): 1.39e+11 mL⁻¹ | MMP14 extracellular vesicle concentration ([1]; HT1080 culture supernatant recovered with exoEasy, Exo-FBS, Reaction 24 hr): 2.053e+11 mL⁻¹ | MMP14 extracellular vesicle concentration ([1]; HT1080 culture supernatant recovered with exoEasy, MEM, Reaction 4 hr): 1.885e+09 mL⁻¹ | MMP14 extracellular vesicle concentration ([1]; HT1080 culture supernatant recovered with exoEasy, MEM, Reaction 24 hr): 4.428e+09 mL⁻¹ | MMP14 extracellular vesicle concentration ([1]; qEV recovered liquid, Exo-FBS, Fraction # 8, 4 hours of reaction): 1.1833e+10 mL⁻¹ | MMP14 extracellular vesicle concentration ([1]; qEV recovered liquid, Exo-FBS, Fraction # 9, 4 hours of reaction): 2.8135e+10 mL⁻¹ | MMP14 extracellular vesicle concentration ([1]; qEV recovered liquid, Exo-FBS, Fraction # 10, 4 hours of reaction): 5.6859e+10 mL⁻¹ | MMP14 extracellular vesicle concentration ([1]; qEV recovered liquid, Exo-FBS, Fraction # 11, 4 hours of reaction): 5.8114e+10 mL⁻¹ | MMP14 extracellular vesicle concentration ([1]; qEV recovered liquid, Exo-FBS, Fraction # 12, 4 hours of reaction): 5.8598e+10 mL⁻¹ | MMP14 extracellular vesicle concentration ([1]; qEV recovered liquid, Exo-FBS, Fraction # 13, 4 hours of reaction): 5.2408e+10 mL⁻¹ | MMP14 extracellular vesicle concentration ([1]; qEV recovered liquid, Exo-FBS, Fraction # 14, 4 hours of reaction): 7.8483e+10 mL⁻¹ | MMP14 extracellular vesicle concentration ([1]; qEV recovered liquid, Exo-FBS, Fraction # 15, 4 hours of reaction): 1.2532e+11 mL⁻¹ | MMP14 extracellular vesicle concentration ([1]; qEV recovered liquid, MEM, Fraction # 7, 4 hours of reaction): 1.5912e+10 mL⁻¹ | MMP14 extracellular vesicle concentration ([1]; qEV recovered liquid, MEM, Fraction # 8, 4 hours of reaction): 7.493e+09 mL⁻¹ | MMP14 extracellular vesicle concentration ([1]; qEV recovered liquid, MEM, Fraction # 9, 4 hours of reaction): 6.37e+09 mL⁻¹ | MMP14 extracellular vesicle concentration ([1]; qEV recovered liquid, MEM, Fraction # 10, 4 hours of reaction): 7.04e+08 mL⁻¹ | MMP14 extracellular vesicle concentration ([1]; qEV recovered liquid, MEM, Fraction # 11, 4 hours of reaction): 4.42e+08 mL⁻¹ | MMP14 extracellular vesicle concentration ([1]; qEV recovered liquid, MEM, Fraction # 12, 4 hours of reaction): 4.64e+08 mL⁻¹ | MMP14 extracellular vesicle concentration ([1]; qEV recovered liquid, MEM, Fraction # 13, 4 hours of reaction): 9.78e+08 mL⁻¹ | MMP14 extracellular vesicle concentration ([1]; qEV recovered liquid, MEM, Fraction # 14, 4 hours of reaction): 3e+07 mL⁻¹ | Fluorescence change ([2]; Culture medium Exo-FBS, HT1080 culture Absent, None (VI)): 50,117 ΔRFU | Fluorescence change ([2]; Culture medium Exo-FBS, HT1080 culture Present, Centrifugation + filtration (V)): 45,429 ΔRFU | Fluorescence change ([2]; Culture medium Exo-FBS, HT1080 culture Present, Only centrifugation (IV)): 46,172 ΔRFU | Fluorescence change ([2]; Culture medium FBS, HT1080 culture Absent, None (III)): 66,945 ΔRFU | Fluorescence change ([2]; Culture medium FBS, HT1080 culture Present, Centrifugation + filtration (II)): 65,200 ΔRFU | Fluorescence change ([2]; Culture medium FBS, HT1080 culture Present, Only centrifugation (I)): 64,773 ΔRFU | Fluorescence change ([2]; Culture medium MEM (×10, supernatant without dilution), HT1080 culture Present, Centrifugation + filtration): 1,515 ΔRFU | Fluorescence change ([2]; Culture medium MEM (×10, supernatant without dilution), HT1080 culture Present, Only centrifugation): 2,494 ΔRFU | Fluorescence change ([2]; Culture medium MEM, HT1080 culture Absent, None (IX)): −311 ΔRFU | Fluorescence change ([2]; Culture medium MEM, HT1080 culture Present, Centrifugation + filtration (VIII)): 186 ΔRFU | Fluorescence change ([2]; Culture medium MEM, HT1080 culture Present, Only centrifugation (VII)): −240 ΔRFU | change in fluorescence intensity after 2 hours ([2]; Example 56, exoEasy recovered liquid from the Exo-FBS): the fluorescence intensity was changed | change in fluorescence intensity after 2 hours ([2]; Example 56, exoEasy recovered liquid from the MEM): no change in fluorescence intensity was recognized | Fluorescence change ([2]; exoEasy recovered liquid, Culture medium Exo-FBS, HT1080 culture Present): 6,663 ΔRFU | Fluorescence change ([2]; exoEasy recovered liquid, Culture medium MEM, HT1080 culture Present): −313 ΔRFU | Fluorescence change ([2]; qEV recovered liquid, Exo-FBS, HT1080 culture Present, Fraction # 1): 336 ΔRFU | Fluorescence change ([2]; qEV recovered liquid, Exo-FBS, HT1080 culture Present, Fraction # 2): 318 ΔRFU | Fluorescence change ([2]; qEV recovered liquid, Exo-FBS, HT1080 culture Present, Fraction # 3): 271 ΔRFU | Fluorescence change ([2]; qEV recovered liquid, Exo-FBS, HT1080 culture Present, Fraction # 4): 285 ΔRFU | Fluorescence change ([2]; qEV recovered liquid, Exo-FBS, HT1080 culture Present, Fraction # 5): 302 ΔRFU | Fluorescence change ([2]; qEV recovered liquid, Exo-FBS, HT1080 culture Present, Fraction # 6): 325 ΔRFU | Fluorescence change ([2]; qEV recovered liquid, Exo-FBS, HT1080 culture Present, Fraction # 7): 1,869 ΔRFU | Fluorescence change ([2]; qEV recovered liquid, Exo-FBS, HT1080 culture Present, Fraction # 8): 7,249 ΔRFU | Fluorescence change ([2]; qEV recovered liquid, Exo-FBS, HT1080 culture Present, Fraction # 9): 9,417 ΔRFU | Fluorescence change ([2]; qEV recovered liquid, Exo-FBS, HT1080 culture Present, Fraction # 10): 17,731 ΔRFU | Fluorescence change ([2]; qEV recovered liquid, Exo-FBS, HT1080 culture Present, Fraction # 11): 30,226 ΔRFU | Fluorescence change ([2]; qEV recovered liquid, Exo-FBS, HT1080 culture Present, Fraction # 12): 44,826 ΔRFU | Fluorescence change ([2]; qEV recovered liquid, Exo-FBS, HT1080 culture Present, Fraction # 13): 61,704 ΔRFU | Fluorescence change ([2]; qEV recovered liquid, Exo-FBS, HT1080 culture Present, Fraction # 14): 76,810 ΔRFU | Fluorescence change ([2]; qEV recovered liquid, MEM, HT1080 culture Present, Fraction # 1): 245 ΔRFU | Fluorescence change ([2]; qEV recovered liquid, MEM, HT1080 culture Present, Fraction # 2): 285 ΔRFU | Fluorescence change ([2]; qEV recovered liquid, MEM, HT1080 culture Present, Fraction # 3): 245 ΔRFU | Fluorescence change ([2]; qEV recovered liquid, MEM, HT1080 culture Present, Fraction # 4): 304 ΔRFU | Fluorescence change ([2]; qEV recovered liquid, MEM, HT1080 culture Present, Fraction # 5): 1,450 ΔRFU | Fluorescence change ([2]; qEV recovered liquid, MEM, HT1080 culture Present, Fraction # 6): 697 ΔRFU | Fluorescence change ([2]; qEV recovered liquid, MEM, HT1080 culture Present, Fraction # 7): 10,198 ΔRFU | Fluorescence change ([2]; qEV recovered liquid, MEM, HT1080 culture Present, Fraction # 8): 11,966 ΔRFU | Fluorescence change ([2]; qEV recovered liquid, MEM, HT1080 culture Present, Fraction # 9): 1,424 ΔRFU | Fluorescence change ([2]; qEV recovered liquid, MEM, HT1080 culture Present, Fraction # 10): 550 ΔRFU | Fluorescence change ([2]; qEV recovered liquid, MEM, HT1080 culture Present, Fraction # 11): 506 ΔRFU | Fluorescence change ([2]; qEV recovered liquid, MEM, HT1080 culture Present, Fraction # 12): 536 ΔRFU | Fluorescence change ([2]; qEV recovered liquid, MEM, HT1080 culture Present, Fraction # 13): 489 ΔRFU | Fluorescence change ([2]; qEV recovered liquid, MEM, HT1080 culture Present, Fraction # 14): 446 ΔRFU

— patent US20250290928A1, “METHOD, KIT AND DEVICE FOR DETECTING EXTRACELLULAR VESICLES” (priority 2022, published 2025)
